Experimental findings from ChEMBL document CHEMBL5357059, “Arenarialins A-F, Anti-inflammatory Meroterpenoids with Rearranged Skeletons from the Marine Sponge Dysidea arenaria” (J Nat Prod, 2024) are described below.

SMILES strings stand for the structures. The source made the active and inactive calls. The rule behind the calls is not given here.

The test system of data set [1] is RAW264.7. Nature of the data set: Cytotoxicity against mouse RAW264.7 cells assessed as reduction in cell viability at 2.5 to 20 uM incubated for 24 hrs by CCK-8 assay. The following applies: raw264.7, 24 h, dose 2.5-20 µM. In kind it is toxicity, cell-based. (Tetrazolium dyes change colour on reduction, which living cells bring about.)
The subject of data set [2] is RAW264.7. Nature of the data set: Antiinflammatory activity in LPS-induced mouse RAW264.7 cells assessed as inhibition of IL-6 production pretreated for 1 hr followed by LPS stimulation and measured after 3 hrs by ELISA. In kind it is functional, cell-based. The following applies: dose 2.5-20 µM, time 4.0 hrs.
The test system of data set [3] is RAW264.7. Nature of the data set: Antiinflammatory activity in LPS-induced mouse RAW264.7 cells assessed as inhibition of TNFalpha production at 5 to 20 uM pretreated for 1 hr followed by LPS stimulation and measured after 3 hrs by ELISA. The following applies: dose 5-20 µM, time 4.0 hrs. In kind it is functional, cell-based. On the technique in general: An ELISA detects its analyte on a solid surface through an enzyme-linked reagent.

Data set [4] concerns RAW264.7. Nature of the data set: Inhibition of LPS-induced p38 phosphorylation in mouse RAW264.7 cells assessed as reduction in p-p38 protein expression at 2.5 to 5 uM pretreated for 2 hrs followed by LPS stimulation and measured after 25 mins by Western blot analysis. It is filed as cell-based. The following applies: dose 2.5-5 µM, time 145.0 min. In general terms: In western blotting, separated proteins are transferred to a membrane and probed.

Data set [5] has as its target Mitogen-activated protein kinase 1 and 3 (ERK2 and ERK1) (Mus musculus) (UniProt P63085+Q63844). Nature of the data set: Inhibition of LPS-induced ERK1/2 phosphorylation in mouse RAW264.7 cells assessed as reduction in p-ERK1/2 protein expression at 2.5 to 5 uM pretreated for 2 hrs followed by LPS stimulation and measured after 25 mins by Western blot analysis. In kind it is cell-based. The following applies: dose 2.5-5 µM, time 145.0 min.

For data set [6], the target named is Transcription factor p65 (Mus musculus) (UniProt Q04207). In words: Inhibition of NFkappaB p65 phosphorylation at Ser536 residue in LPS-induced mouse RAW264.7 cells assessed as downregulation of p-NFkappaB p65 protein expression at 5 uM pretreated for 2 hrs followed by LPS stimulation and measured after 25 mins by Western blot analysis. It is filed as cell-based. Particulars: time 145.0 min.

Data set [7] has as its target c-Jun N-terminal kinase (Mus musculus) (UniProt Q91Y86+Q9WTU6+Q61831). In words: Inhibition of LPS-induced JNK phosphorylation in mouse RAW264.7 cells assessed as reduction in p-JNK protein expression at 2.5 to 5 uM pretreated for 2 hrs followed by LPS stimulation and measured after 25 mins by Western blot analysis. It is filed as cell-based. The following applies: dose 2.5-5 µM, time 145.0 min.

Data set [8] deals with T1, NF-kappa-B inhibitor alpha (Mus musculus) (UniProt Q9Z1E3).
T1 sequence (whole entry): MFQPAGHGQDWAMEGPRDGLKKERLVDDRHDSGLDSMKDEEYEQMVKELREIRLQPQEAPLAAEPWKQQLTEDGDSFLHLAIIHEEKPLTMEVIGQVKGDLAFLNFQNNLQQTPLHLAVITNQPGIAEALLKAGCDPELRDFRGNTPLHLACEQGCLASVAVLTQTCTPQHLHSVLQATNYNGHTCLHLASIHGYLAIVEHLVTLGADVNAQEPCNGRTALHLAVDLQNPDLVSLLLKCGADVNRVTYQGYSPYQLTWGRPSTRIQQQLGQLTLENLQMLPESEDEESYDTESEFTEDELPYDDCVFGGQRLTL
In words: Inhibition of IkappaBalpha phosphorylation at Ser32 residue in LPS-induced mouse RAW264.7 cells at 5 uM pretreated for 2 hrs followed by LPS stimulation and measured after 25 mins by Western blot analysis. Particulars: time 145.0 min. It is filed as cell-based.

The test system of data set [9] is RAW264.7. In words: Effect on COX-2 protein expression in LPS-induced mouse RAW264.7 cells at 5 uM pretreated for 2 hrs followed by LPS stimulation and measured after 25 mins by Western blot analysis. It is filed as functional, cell-based. The following applies: time 145.0 min.

c-Jun N-terminal kinase (Mus musculus), sequence (Q61831 whole entry, looked up): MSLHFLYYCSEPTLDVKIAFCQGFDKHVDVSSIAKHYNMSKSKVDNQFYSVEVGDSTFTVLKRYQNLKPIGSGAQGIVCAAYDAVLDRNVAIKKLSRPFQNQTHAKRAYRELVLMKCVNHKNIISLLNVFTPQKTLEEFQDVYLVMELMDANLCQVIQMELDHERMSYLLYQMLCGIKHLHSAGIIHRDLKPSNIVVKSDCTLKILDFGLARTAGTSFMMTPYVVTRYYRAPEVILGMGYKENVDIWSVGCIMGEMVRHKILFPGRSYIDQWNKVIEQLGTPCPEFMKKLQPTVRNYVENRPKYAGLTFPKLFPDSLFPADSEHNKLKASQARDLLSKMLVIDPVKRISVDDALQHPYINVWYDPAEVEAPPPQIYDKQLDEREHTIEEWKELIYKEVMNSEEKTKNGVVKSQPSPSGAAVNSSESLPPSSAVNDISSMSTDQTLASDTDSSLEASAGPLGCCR
c-Jun N-terminal kinase (Mus musculus), sequence (Q91Y86 whole entry, looked up): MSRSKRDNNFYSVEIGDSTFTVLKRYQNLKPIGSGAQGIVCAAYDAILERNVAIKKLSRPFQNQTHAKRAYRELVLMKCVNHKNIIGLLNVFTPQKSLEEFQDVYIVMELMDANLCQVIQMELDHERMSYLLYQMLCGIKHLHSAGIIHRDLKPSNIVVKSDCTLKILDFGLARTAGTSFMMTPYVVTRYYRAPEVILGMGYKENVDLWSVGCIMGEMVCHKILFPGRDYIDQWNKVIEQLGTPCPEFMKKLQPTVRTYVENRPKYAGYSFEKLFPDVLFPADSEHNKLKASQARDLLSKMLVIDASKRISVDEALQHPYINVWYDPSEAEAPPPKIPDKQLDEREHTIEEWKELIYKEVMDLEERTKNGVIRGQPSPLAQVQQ
c-Jun N-terminal kinase (Mus musculus), sequence (Q9WTU6 whole entry, looked up): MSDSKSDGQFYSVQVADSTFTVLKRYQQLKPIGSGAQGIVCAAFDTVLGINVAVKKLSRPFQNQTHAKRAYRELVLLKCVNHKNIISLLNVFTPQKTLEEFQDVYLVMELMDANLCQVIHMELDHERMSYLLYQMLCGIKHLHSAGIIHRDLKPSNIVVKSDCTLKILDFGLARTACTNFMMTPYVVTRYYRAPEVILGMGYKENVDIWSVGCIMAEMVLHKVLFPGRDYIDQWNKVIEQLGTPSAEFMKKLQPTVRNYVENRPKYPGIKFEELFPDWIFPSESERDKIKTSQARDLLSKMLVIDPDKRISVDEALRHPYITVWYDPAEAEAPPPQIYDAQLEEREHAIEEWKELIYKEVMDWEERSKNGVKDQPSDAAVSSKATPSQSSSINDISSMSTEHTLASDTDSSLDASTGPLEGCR
Mitogen-activated protein kinase 1 and 3 (ERK2 and ERK1) (Mus musculus), sequence (P63085 whole entry, looked up): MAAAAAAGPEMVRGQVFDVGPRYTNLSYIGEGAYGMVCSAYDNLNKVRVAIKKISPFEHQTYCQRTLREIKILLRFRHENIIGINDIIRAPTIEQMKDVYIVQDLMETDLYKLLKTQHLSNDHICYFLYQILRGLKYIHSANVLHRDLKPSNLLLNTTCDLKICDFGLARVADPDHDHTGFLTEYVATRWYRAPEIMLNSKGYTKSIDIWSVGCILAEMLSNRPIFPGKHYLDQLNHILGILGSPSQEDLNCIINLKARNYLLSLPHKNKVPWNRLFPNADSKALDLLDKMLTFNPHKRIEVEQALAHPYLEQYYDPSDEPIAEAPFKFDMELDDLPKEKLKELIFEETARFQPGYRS
Mitogen-activated protein kinase 1 and 3 (ERK2 and ERK1) (Mus musculus), sequence (Q63844 whole entry, looked up): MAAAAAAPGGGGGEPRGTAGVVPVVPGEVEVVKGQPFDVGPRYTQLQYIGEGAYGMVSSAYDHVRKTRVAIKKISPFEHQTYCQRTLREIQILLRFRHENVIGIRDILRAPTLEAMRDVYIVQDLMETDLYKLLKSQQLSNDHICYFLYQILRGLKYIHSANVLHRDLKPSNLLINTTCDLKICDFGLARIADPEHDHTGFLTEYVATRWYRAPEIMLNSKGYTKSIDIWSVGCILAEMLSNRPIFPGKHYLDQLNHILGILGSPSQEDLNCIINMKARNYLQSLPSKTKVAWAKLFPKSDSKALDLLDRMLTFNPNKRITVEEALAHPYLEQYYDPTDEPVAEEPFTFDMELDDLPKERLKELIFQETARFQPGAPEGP
Transcription factor p65 (Mus musculus), sequence (Q04207 whole entry): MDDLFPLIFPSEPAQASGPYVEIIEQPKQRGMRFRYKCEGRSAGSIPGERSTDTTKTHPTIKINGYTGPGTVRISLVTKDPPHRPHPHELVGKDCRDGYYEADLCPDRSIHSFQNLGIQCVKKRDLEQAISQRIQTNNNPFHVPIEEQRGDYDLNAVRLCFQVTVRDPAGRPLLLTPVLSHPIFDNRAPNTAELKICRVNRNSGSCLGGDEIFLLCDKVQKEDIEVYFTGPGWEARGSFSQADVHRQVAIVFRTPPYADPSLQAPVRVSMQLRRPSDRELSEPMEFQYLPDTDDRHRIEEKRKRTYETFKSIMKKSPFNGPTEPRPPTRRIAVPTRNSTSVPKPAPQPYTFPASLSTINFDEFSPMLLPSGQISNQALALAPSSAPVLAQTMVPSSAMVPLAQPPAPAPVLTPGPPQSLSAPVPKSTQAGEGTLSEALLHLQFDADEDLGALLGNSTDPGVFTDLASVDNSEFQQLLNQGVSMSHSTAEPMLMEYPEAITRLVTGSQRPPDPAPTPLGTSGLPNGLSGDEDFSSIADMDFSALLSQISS

Regarding `C[C@H]1CC[C@]2(C)[C@@H](C)OC(=O)C[C@]23c2c(O)ccc(O)c2C[C@]13C`, the Activity entry in the data set with RAW264.7 [1] is recorded as “Non-Toxic”.
As to `C[C@H]1CC[C@@]2(C)[C@]34CC(=O)C[C@]2(C)Oc2ccc(O)c(c23)C[C@]14C`, the Activity result in the data set with RAW264.7 [2] was “Dose-Dependent Effect”; in the data set with RAW264.7 [1], “Non-Toxic”. Further, the result in the data set on RAW264.7 [3] was Active.
In the case of `CCOC1=CC(=O)C2=C(C1=O)[C@@H]1C[C@]3(C)C(C)=CCCC3=C(C)[C@]1(C)C2`, in the data set with RAW264.7 [3], the result was Active. The Activity result in the data set with RAW264.7 [1] is listed as “Non-Toxic”.
Turning to `CC1=CC(=O)[C@@H]2Oc3ccc(O)cc3C[C@]3(C)[C@@H](C)CC[C@@]1(C)[C@@H]23`, the Activity result was “Dose-Dependent Effect” in the data set on RAW264.7 [2] and “Non-Toxic” with RAW264.7 [1]. Further, the result with RAW264.7 [3] was Active.
For the compound `C=C1[C@H](O)C[C@@H]2Oc3ccc(O)cc3C[C@]3(C)[C@@H](C)CC[C@@]1(C)[C@@H]23`, the Activity result is “Dose-Dependent Effect” with RAW264.7 [2] and “Non-Toxic” in the data set with RAW264.7 [1].
`C[C@@H]1CC[C@@]2(C)OC(=O)[C@H]3Oc4ccc(O)cc4C[C@]1(C)[C@@H]32`: the inhibition entry (in the data set with RAW264.7 [4]; in [5]; in data set [6]; in [7]) was “Active” each time. For the same compound, the Activity result in the data set with RAW264.7 [2] was “Dose-Dependent Effect”; in the data set with RAW264.7 [1], “Non-Toxic”. Also, the outcome with RAW264.7 [3] was Active. The inhibition entry in data set [8] is “inactive”. Moreover, in the data set with RAW264.7 [9], the result was inactive.
